# Read-outs that look alike come from different tables or passages of the source.
# Experiments:
# [1] = tested on: SNU-638; test: In vitro cell viability assay (cancer cell anti-proliferative activity), SNU-638; type: cell-based, human; conditions: SNU-638 cells, treated 72 hours
# Method: (§1) The c-MET overexpressing human gastric cancer cell lines MKN45 and SNU638 were cultured in RPMI medium with 10% fetal bovine serum, penicillin (100 U/ml), and streptomycin ([…]), and the c-MET exon 14 skipping mutant human gastric cancer cell line Hs746T was cultured in DMEM media. The c-MET overexpressing human lung cancer cell line EBC-1 was cultured in MEM media with the addition of 10% fetal bovine serum, penicillin (100U/ml), and streptomycin ([…]). The normal cell line WI-38 derived from human lung tissue was cultured in EMEM medium with the addition of 10% fetal bovine serum, penicillin (100U/ml), and streptomycin ([…]).
# (§2) The compound synthesized in accordance with the present invention was prepared with a raw material solution of 10 mM dissolved in DMSO (dimethyl sulfoxide), and was sequentially diluted and processed.
# (§3) In order to evaluate the inhibitory activity on cell growth, cells were dispensed in a 96-well plate at a concentration of 5,000 cells/well and then treated with the compound of the present invention prepared at various concentrations for 72 hours. The absorbance measurement at 450 nm was calculated using the GraphicPad Prism 8.0 software. The IC50 value (concentration of the compound achieving 50% cytostatic inhibition) is the average value of the measured results. […]
# [2] = tested on: EBC-1; test: In vitro cell viability assay (cancer cell anti-proliferative activity), EBC-1; type: cell-based, human; conditions: EBC-1 cells, treated 72 hours
# Method: as §1, §2, §3
# [3] = target: T1, c-MET (Homo sapiens, UniProt P08581); test: c-MET protein degradation (Simple Western) in EBC-1 cells; type: cell-based; set-up: To evaluate the degradation efficacy of the compounds of the present invention for c-MET expressed in cells; endogenous in cells; host or cells: EBC-1 (human lung cancer cell line); conditions: EBC-1, lung cancer cell line treated 48 hours; c-MET expression normalized to GAPDH, 0.1% DMSO = 100%; read-out: In vitro cell viability assay (nM) EBC-1 DC50
# Method: as §1, §2
# (§4) To evaluate the degradation efficacy of the compounds of the present invention for c-MET expressed in cells, cells were dispensed in a 12-well plate at a concentration of 2 × 10^5 cells/well, and then gastric cancer cell lines were treated with samples for 24 hours and lung cancer cell lines were treated for 48 hours.
# (§5) To perform a western blotting assay to confirm protein expression, cells treated with a compound treated with 40 µL of RIPA buffer with a protease inhibitor for 30 minutes, collected cell lysate using a scraper on ice, and centrifuged at 4°C 15,000 rpm for 30 min to obtain a protein-containing supernatant.
# (§6) Protein expression was then measured using the Simple Western Automated Western Blot System Abby instrument using 3 µg of protein for each sample. SDS and heat-induced denaturation proteins were separated by molecular weight, attached to the capillary, reacted with anti-c-MET or anti-GAPDH antibodies, which are primary antibodies, and then reacted with HRP-conjugated secondary antibodies, and analyzed the protein expression signal with compass software.
# (§7) Protein expression was normalized based on the expression value of GAPDH, and the protein expression amount in each sample was measured as a percentage (%) based on 100% of samples treated with 0.1% DMSO carrier, and DC50 (concentration of a compound where 50% protein inhibition is achieved) was calculated from the change in protein expression amount due to compound treatment.
# [4] = target: T1, c-MET; test: c-MET protein degradation (Simple Western) in SNU-638 cells; type: cell-based; set-up: To evaluate the degradation efficacy of the compounds of the present invention for c-MET expressed in cells; endogenous in cells; conditions: SNU-638, gastric cancer cell line treated 24 hours; c-MET expression normalized to GAPDH, 0.1% DMSO = 100%; read-out: In vitro cell viability assay (nM) SNU-638 DC50
# Method: as §1, §2, §4, §5, §6, §7
# [5] = absorbance at 450 nm, read-out: In vitro cell viability assay (IC50, nM) SNU-638
# [6] = absorbance at 450 nm, read-out: In vitro cell viability assay (IC50, nM) EBC-1
# [7] = Homo sapiens, absorbance at 450 nm, read-out: In vitro cell viability assay (IC50, nM) SNU-638
# [8] = Homo sapiens, absorbance at 450 nm, read-out: In vitro cell viability assay (IC50, nM) EBC-1
# T1 sequence (P08581 25-1390): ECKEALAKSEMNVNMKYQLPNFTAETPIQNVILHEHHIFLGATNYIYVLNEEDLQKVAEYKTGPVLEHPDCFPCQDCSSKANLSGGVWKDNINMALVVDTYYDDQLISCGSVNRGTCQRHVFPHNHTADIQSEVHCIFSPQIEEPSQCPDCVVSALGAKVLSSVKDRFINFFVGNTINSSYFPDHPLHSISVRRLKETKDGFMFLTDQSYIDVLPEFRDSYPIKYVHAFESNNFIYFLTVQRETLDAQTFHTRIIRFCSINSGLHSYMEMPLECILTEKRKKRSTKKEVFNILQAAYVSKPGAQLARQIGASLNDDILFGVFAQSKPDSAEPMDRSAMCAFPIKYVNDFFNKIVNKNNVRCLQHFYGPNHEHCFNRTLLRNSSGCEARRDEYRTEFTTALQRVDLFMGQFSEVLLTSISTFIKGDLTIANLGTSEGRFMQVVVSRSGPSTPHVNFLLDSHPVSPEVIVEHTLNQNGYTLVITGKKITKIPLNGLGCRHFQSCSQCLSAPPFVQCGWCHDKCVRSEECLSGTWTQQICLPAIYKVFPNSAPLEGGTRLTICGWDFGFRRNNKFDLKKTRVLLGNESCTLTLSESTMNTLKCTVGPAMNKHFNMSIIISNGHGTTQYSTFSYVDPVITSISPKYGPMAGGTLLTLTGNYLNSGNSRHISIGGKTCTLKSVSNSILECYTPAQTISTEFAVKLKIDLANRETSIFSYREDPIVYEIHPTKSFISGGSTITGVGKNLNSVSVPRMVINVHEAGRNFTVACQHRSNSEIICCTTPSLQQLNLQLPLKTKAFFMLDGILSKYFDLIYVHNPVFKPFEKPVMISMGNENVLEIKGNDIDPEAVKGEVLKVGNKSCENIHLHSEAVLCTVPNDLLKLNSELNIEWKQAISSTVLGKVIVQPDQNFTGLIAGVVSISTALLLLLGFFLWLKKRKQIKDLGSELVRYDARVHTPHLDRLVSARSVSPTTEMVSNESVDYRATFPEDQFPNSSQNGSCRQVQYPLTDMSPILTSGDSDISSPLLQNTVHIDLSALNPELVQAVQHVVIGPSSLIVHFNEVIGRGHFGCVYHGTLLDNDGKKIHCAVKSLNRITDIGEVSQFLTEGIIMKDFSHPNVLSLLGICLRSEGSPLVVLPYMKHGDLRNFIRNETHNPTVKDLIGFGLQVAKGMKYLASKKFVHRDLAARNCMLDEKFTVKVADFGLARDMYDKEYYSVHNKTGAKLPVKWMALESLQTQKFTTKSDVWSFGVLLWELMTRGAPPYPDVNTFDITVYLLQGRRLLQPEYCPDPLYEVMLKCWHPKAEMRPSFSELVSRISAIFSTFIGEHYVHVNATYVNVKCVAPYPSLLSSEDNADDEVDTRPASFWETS
Compound,"IC50 [1, 7] [nM]","IC50 [2, 8] [nM]",other results
"3-(6-oxo-1-(3-(5-(piperazine-1-yl)pyrimidine-2-yl)benzyl)-1,6-dihydropyridazine-3-yl)benzonitrile [Example C-6]",–,–,"IC50 [1, 5]: ≤ 100 nM; IC50 [2, 6]: ≤ 100 nM"
"CN1CCN(Cc2ccc(-c3cnc(N4CCO[C@H](Cn5nnc6nc(-c7cnn(C)c7)cnc65)C4)nc3)cc2)CC1 [ABN401, reference compound]",≤ 100,≤ 100,–
"Cn1cc(-c2cnc3c(nnn3C[C@@H]3CN(c4ncc(N5CCN(CC6CN(C(=O)OC(C)(C)C)C6)CC5)cn4)CCO3)n2)cn1 [Example B-1, tert-butyl(S)-3-((4-(2-(2-((5-(1-methyl-1H-pyrazole-4-yl)-1H-[1,2,3]triazolo[4,5-b]pyrazine-1-yl)methyl)morpholino)pyrimidine-5-il)ppiperazine-1-il)methyl)azetidine-1-carboxylate]",≤ 100,≤ 100,–
Cn1cc(-c2cnc3c(nnn3C[C@@H]3CN(c4ncc(N5CCN(CC6CNC6)CC5)cn4)CCO3)n2)cn1 [Example B-2],≤ 100,≤ 100,–
"CN1CC(CN2CCN(c3cnc(N4CCO[C@H](Cn5nnc6nc(-c7cnn(C)c7)cnc65)C4)nc3)CC2)C1 [Example B-3, (S)-2-((5-(1-methyl-1H-pyrazole-4-yl)-1H-[1,2,3]triazolo[4,5-b]pyrazine-1-yl)methyl)-4-(5-(4-((1-methylazetidine-3-yl)methyl)piperazine-1-il)pyrimidine-2-yl)morpholine]",≤ 100,≤ 100,–
Cn1cc(-c2cnc3c(nnn3C[C@@H]3CN(c4ncc(N5CC(CN6CCN(C(=O)OCc7ccccc7)CC6)C5)cn4)CCO3)n2)cn1 [Example B-4],≤ 100,≤ 100,–
"Cn1cc(-c2cnc3c(nnn3C[C@@H]3CN(c4ncc(N5CC(CN6CCNCC6)C5)cn4)CCO3)n2)cn1 [Example B-5, (S)-2-((5-(1-methyl-1H-pyrazole-4-yl)-1H-[1,2,3]triazolo[4,5-b]pyrazine-1-yl)methyl)-4-(5-(3-(piperazine-1-ylmethyl)azetidine-1-il)pyrimidine-2-yl)morpholine]",≤ 100,≤ 100,–
"Cn1cc(-c2cnc3c(nnn3C[C@@H]3CN(c4ncc(N5CC(COCc6ccccc6)C5)cn4)CCO3)n2)cn1 [Example B-6, (S)-4-(5-(3-((benzyloxy)methyl)azetidine-1-il)pyrimidine-2-yl)-2-((5-(1-methyl-1H-pyrazole-4-yl)-1H-[1,2,3]triazolo[4,5-b]pyrazine-1-yl)methyl)morpholine]",≤ 100,≤ 100,–
"Cn1cc(-c2cnc3c(nnn3C[C@@H]3CN(c4ncc(N5CC(CO)C5)cn4)CCO3)n2)cn1 [Example B-7, (S)-(1-(2-(2-((5-(1-methyl-1H-pyrazole-4-yl)-1H-[1,2,3]triazolo[4,5-b]pyrazine-1-yl)methyl)morpholino)pyrimidine-5-il)azetidine-3-yl)methanol]",≤ 100,≤ 100,–
"Cc1ccc(S(=O)(=O)OCC2CN(c3cnc(N4CCO[C@H](Cn5nnc6nc(-c7cnn(C)c7)cnc65)C4)nc3)C2)cc1 [Example B-8, (S)-(1-(2-(2-((5-(1-methyl-1H-pyrazole-4-yl)-1H-[1,2,3]triazolo[4,5-b]pyrazine-1-yl)methyl)morpholino)pyrimidine-5-il)azetidine-3-yl)methyl 4-methylbenzenesulfonate]",≤ 100,≤ 100,–
Cn1cc(-c2cnc3c(nnn3C[C@@H]3CN(c4ncc(N5CC(CN6CCN(C(=O)OC(C)(C)C)CC6)C5)cn4)CCO3)n2)cn1 [Example B-9],≤ 100,≤ 100,–
"CN1CCN(CC2CN(c3cnc(N4CCO[C@H](Cn5nnc6nc(-c7cnn(C)c7)cnc65)C4)nc3)C2)CC1 [Example B-10, (S)-2-((5-(1-methyl-1H-pyrazole-4-yl)-1H-[1,2,3]triazolo[4,5-b]pyrazin-1-yl)methyl)-4-(5-(3-((4-methylpiperazine-1-yl)methyl)azetidine-1-il)pyrimidine-2-yl)morpholine]",≤ 100,≤ 100,–
"COc1ccc(COCC2CN(c3cnc(N4CCO[C@H](Cn5nnc6nc(-c7cnn(C)c7)cnc65)C4)nc3)C2)cc1 [Example B-11, (S)-4-(5-(3-(((4-methoxybenzyl)oxy)methyl)azetidine-1-il)pyrimidine-2-yl)-2-((5-(1-methyl-1H-pyrazole-4-yl)-1H-[1,2,3]triazolo[4,5-b]pyrazine-1-yl)methyl)morpholine]",≤ 100,≤ 100,–
"CC(C)(C)OC(=O)Nc1ccc(COCC2CN(c3cnc(N4CCO[C@H](Cn5nnc6nc(-c7cn[nH]c7)cnc65)C4)nc3)C2)cc1 [Example B-12, tert-butyl(S)-(4-(((1-(2-(2-((5-(1H-pyrazole-4-yl)-1H-[1,2,3]triazolo[4,5-b]pyrazine-1-yl)methyl)morpholino)pyrimidine-5-il)azetidine-3-il)methoxy)methyl)phenyl)carbamate]",–,–,"IC50 [1, 5]: ≤ 1000 nM; IC50 [2, 6]: ≤ 1000 nM"
Cn1cc(-c2cnc3c(nnn3C[C@@H]3CN(c4ncc(N5CC(COCc6ccc(NC(=O)OC(C)(C)C)nc6)C5)cn4)CCO3)n2)cn1 [Example B-13],≤ 1000,≤ 1000,–
CC(C)(C)OC(=O)N1CCN(c2cnc(-c3cccc(Cn4nc(-c5cccc(C#N)c5)ccc4=O)c3)nc2)CC1 [Example C-5],–,–,"IC50 [1, 5]: ≤ 100 nM; IC50 [2, 6]: ≤ 100 nM"
"N#Cc1cccc(-c2ccc(=O)n(Cc3cccc(-c4ncc(OC[C@@H]5CN(c6ccc(NC7CCC(=O)NC7=O)cc6F)CCO5)cn4)c3)n2)c1 (stereo partly drawn) [Example E-3, 3-(1-(3-(5-(((2R)-4-(4-((2,6-dioxopiperidin-3-yl)amino)-2-fluorophenyl)morpholine-2-yl)methoxy)pyrimidine-2-yl)benzyl)6-oxo-1,6-dihydropyridazine-3-il)benzonitrile]",–,–,"DC50 [3]: > 1000 nM; IC50 ([1]; Homo sapiens, read-out: In vitro cell viability assay (nM) SNU-638 IC50): ≤ 100 nM; IC50 ([2]; Homo sapiens, read-out: In vitro cell viability assay (nM) EBC-1 IC50): ≤ 100 nM; DC50 [4]: > 1000 nM"

# Further lines, with some results ahead:
"IC50 [1, 7] [nM]","IC50 [2, 8] [nM]",Compound,other results
≤ 100,≤ 100,"CC(C)(C)OC(=O)N1CCO[C@@H](COc2cnc(-c3cccc(Cn4nc(-c5cccc(C#N)c5)ccc4=O)c3)nc2)C1 [Example C-1, tert-butyl(2R)-2-(((2-(3-((3-(3-cyanophenyl)-6-oxopyridazin-1(6H)-yl)methyl)phenyl)pyrimidine-5-yl)oxy)methyl)methyl-4-carboxylate]",–
≤ 100,≤ 100,"N#Cc1cccc(-c2ccc(=O)n(Cc3cccc(-c4ncc(OC[C@@H]5CNCCO5)cn4)c3)n2)c1 [Example C-2, (S)-3-(1-(3-(5-(morpholine-2-ylmethoxy)pyrimidine-2-yl)benzyl)-6-oxo-1,6-dihydropyridazine-3-yl)benzonitrile]",–
≤ 100,≤ 100,CC(C)(C)OC(=O)N1CCN(CCOc2cnc(-c3cccc(Cn4nc(-c5cccc(C#N)c5)ccc4=O)c3)nc2)CC1 [Example C-3],–
≤ 100,≤ 100,"N#Cc1cccc(-c2ccc(=O)n(Cc3cccc(-c4ncc(OCCN5CCNCC5)cn4)c3)n2)c1 [Example C-4, 3-(6-oxo-1-(3-(5-(2-(piperazine-1-yl)ethoxy)pyrimidine-2-yl)benzyl)-1,6-dihydropyridazine-3-yl)benzonitrile]",–

# — EP4624472A1, “DEGRADER INCLUDING NOVEL C-MET PROTEIN LIGAND AND PHARMACEUTICAL COMPOSITION INCLUDING SAME” (Innocure Therapeutics, Inc., priority 2022, dated 2024)
